Measured values as given in patent publication US20050074901A1, “Methods and assays for detecting and quantifying the human p53 inducible gene protein” (priority 2002, published 2005).
Where two headings read alike, the source gives them in different places.

How the values were obtained:
PIG3 [1] = assay: Adriamycin upregulation of PIG3 over time and dose (PIG3 ELISA, FIG. 4A); type: cell-based, human
Excerpt: The invention features a PIG3 ELISA that is a “sandwich” enzyme immunoassay employing two mouse monoclonal antibodies and methods for using the assay. A monoclonal antibody, specific for the human PIG3 protein, is immobilized onto the surface of microtiter wells provided. A kit for the immunoassay, comprising two monoclonal antibodies X1155P and X1156M, is available from Exalpha Biologicals, Inc. in Boston, Mass. As the Frontier Assay Kit. The sample to be assayed and the biotinylated detector monoclonal antibody are pipetted into the wells and allowed to incubate for two hours, during which time any PIG3 present binds to the capture and detecting antibodies. […]
The horseradish peroxidase catalyzes the conversion of the chromogenic substrate tetra-methylbenzidine (TMB) from a colorless solution to a blue solution (or yellow after the addition of stop reagent), the intensity of which is proportional to the amount of PIG3 protein in the sample. The colored reaction product is quantified using a spectrophotometer.
Quantitation is achieved by the construction of a standard curve using known concentrations of PIG3 (provided lyophilized). By comparing the absorbance obtained from a sample containing an unknown amount of PIG3 with that obtained from the standards, the concentration of PIG3 in the sample is determined. […]

PIG3 [2] = conditions: cited from earlier work

Compound: COc1cccc2c1C(=O)c1c(O)c3c(c(O)c1C2=O)C[C@@](O)(C(=O)CO)C[C@@H]3O[C@H]1C[C@H](N)[C@H](O)[C@H](C)O1 [Adriamycin, adriamycin]
- PIG3 level (PIG3 [1]): upregulation of PIG3
- PIG3 induction (PIG3 [2]; cell lines with wild-type p53 genes): strongly induced
- PIG3 induction (PIG3 [2]; cell with mutant p53): not in the cell with mutant p53
